Test results from ChEMBL document CHEMBL4334464, “From Phenylthiazoles to Phenylpyrazoles: Broadening the Antibacterial Spectrum toward Carbapenem-Resistant Bacteria” (J Med Chem, 2019).
≈ marks a conversion by molar mass, not a printed value. Calls of active or inactive are those of the source. The calls are words filed in the database; no cut-off is given here.

What was measured:
Escherichia coli [1] = assay: Antimicrobial activity against Escherichia coli JW55031 harboring deltatolC mutant after 18 to 20 hrs in aerobic condition by CLSI protocol based broth microdilution assay; format: functional
Staphylococcus aureus [2] = assay: Antibacterial activity against Methicillin-sensitive Staphylococcus aureus NRS107 clinical isolates after 18 to 20 hrs in aerobic condition by CLSI protocol based broth microdilution assay; format: functional
Staphylococcus aureus [3] = assay: Antibacterial activity against linezolid-resistant/Methicillin-resistant Staphylococcus aureus NRS119 clinical isolates after 18 to 20 hrs in aerobic condition by CLSI protocol based broth microdilution assay; format: functional
Staphylococcus aureus [4] = assay: Antibacterial activity against Methicillin-resistant Staphylococcus aureus NRS123-USA400 clinical isolates after 18 to 20 hrs in aerobic condition by CLSI protocol based broth microdilution assay; format: functional
Staphylococcus aureus [5] = assay: Antibacterial activity against Methicillin-resistant Staphylococcus aureus NRS385-USA500 clinical isolates after 18 to 20 hrs in aerobic condition by CLSI protocol based broth microdilution assay; format: functional
Staphylococcus aureus [6] = assay: Antibacterial activity against vancomycin-resistant Staphylococcus aureus isolate 12 after 18 to 20 hrs in aerobic condition by CLSI-based broth microdilution assay; format: functional
Staphylococcus aureus [7] = assay: Bactericidal activity against methicillin-resistant Staphylococcus aureus NRS123-USA400 clinical isolates at 5 times MIC incubated over 24 hrs followed by replating on tryptic soy agar plate and further incubated for 18 to 20 hrs by time kill assay; format: functional, organism-based
[8] = system: Staphylococcus epidermidis; assay: Antibacterial activity against Staphylococcus epidermidis NRS101 after 18 to 20 hrs in aerobic condition by CLSI-based broth microdilution assay; format: functional
Enterococcus faecium = assay: Antibacterial activity against vancomycin-resistant Enterococcus faecium ATCC 700221 clinical isolates after 18 to 20 hrs in aerobic condition by CLSI-based broth microdilution assay; format: functional
Streptococcus pneumoniae = assay: Antibacterial activity against cephalosporin-resistant Streptococcus pneumoniae ATCC 51916 clinical isolates after 18 to 20 hrs by CLSI-based broth microdilution assay; format: functional
Clostridioides difficile = assay: Antibacterial activity against Clostridium difficile ATCC BAA 1870 incubated for 48 hrs in anaerobic condition by CLSI-based broth microdilution assay; format: functional; conditions: ATCC BAA 1870, 48 h
Acinetobacter baumannii [9] = assay: Antibacterial activity against Acinetobacter baumannii ATCC 19606 clinical isolates after 18 to 20 hrs in aerobic condition by CLSI-based broth microdilution assay; format: functional; conditions: ATCC 19606 = CIP 70.34 = JCM 6841
Acinetobacter baumannii [10] = assay: Antibacterial activity against Acinetobacter baumannii ATCC BAA 1141 clinical isolates after 18 to 20 hrs in aerobic condition by CLSI-based broth microdilution assay; format: functional
Escherichia coli [11] = assay: Antibacterial activity against Escherichia coli ATCC 25922 clinical isolates after 18 to 20 hrs in aerobic condition by CLSI-based broth microdilution assay; format: functional
Escherichia coli [12] = assay: Antibacterial activity against Escherichia coli ATCC 35150 clinical isolates after 18 to 20 hrs in aerobic condition by CLSI-based broth microdilution assay; format: functional
[13] = Antibacterial activity against Enterobacter cloacae subsp. cloacae ATCC BAA-1143 clinical isolates after 18 to 20 hrs in aerobic condition by CLSI-based broth microdilution assay; format: functional
Klebsiella pneumoniae [14] = assay: Antibacterial activity against Klebsiella pneumoniae BAA-1706 clinical isolates after 18 to 20 hrs in aerobic condition by CLSI-based broth microdilution assay; format: functional
Salmonella enterica [15] = assay: Antibacterial activity against Salmonella enterica NR-170 clinical isolates after 18 to 20 hrs in aerobic condition by CLSI-based broth microdilution assay; format: functional
Salmonella enteritidis [16] = assay: Antibacterial activity against Salmonella enteritidis ATCC 13076 clinical isolates after 18 to 20 hrs in aerobic condition by CLSI-based broth microdilution assay; format: functional, Salmonella enterica subsp. enterica serovar Enteritidis; conditions: Salmonella enterica
Salmonella enteritidis [17] = assay: Antibacterial activity against Salmonella enteritidis ATCC 14028 clinical isolates after 18 to 20 hrs in aerobic condition by CLSI-based broth microdilution assay; format: functional, Salmonella enterica subsp. enterica serovar Enteritidis; conditions: Salmonella enterica
Escherichia coli [18] = assay: Antibacterial activity against carbapenem-resistant Escherichia coli BAA-2469 clinical isolates after 18 to 20 hrs in aerobic condition by CLSI-based broth microdilution assay; format: functional
Klebsiella pneumoniae [19] = assay: Antibacterial activity against carbapenem-resistant Klebsiella pneumoniae ATCC BAA-2146 clinical isolates after 18 to 20 hrs in aerobic condition by CLSI-based broth microdilution assay; format: functional
Acinetobacter baumannii [20] = assay: Antibacterial activity against carbapenem-resistant Acinetobacter baumannii ATCC BAA 1605 clinical isolates after 18 to 20 hrs in aerobic condition by CLSI-based broth microdilution assay; format: functional
Pseudomonas aeruginosa [21] = assay: Antibacterial activity against carbapenem-resistant Pseudomonas aeruginosa ATCC 1744 clinical isolates after 18 to 20 hrs in aerobic condition by CLSI-based broth microdilution assay; format: functional
Staphylococcus aureus [22] = assay: Ratio of MBC to MIC for Methicillin-sensitive Staphylococcus aureus ATCC 6538 clinical isolates; format: functional
Listeria monocytogenes = assay: Ratio of MBC to MIC for Listeria monocytogenes ATCC 19111 clinical isolates; format: functional
Acinetobacter baumannii [23] = assay: Ratio of MBC to MIC for Acinetobacter baumannii ATCC 19606 clinical isolates; format: functional, ATCC 19606 = CIP 70.34 = JCM 6841
Acinetobacter baumannii [24] = assay: Ratio of MBC to MIC for Acinetobacter baumannii ATCC BAA 1747 clinical isolates; format: functional
Acinetobacter baumannii [25] = assay: Ratio of MBC to MIC for Acinetobacter baumannii NR 17785 clinical isolates; format: functional
Acinetobacter baumannii [26] = assay: Ratio of MBC to MIC for Acinetobacter baumannii NR 17786 clinical isolates; format: functional
Escherichia coli [27] = assay: Ratio of MBC to MIC for Escherichia coli ATCC 35150 clinical isolates; format: functional
Escherichia coli [28] = assay: Ratio of MBC to MIC for Escherichia coli ATCC 1411 clinical isolates; format: functional
Klebsiella pneumoniae [29] = assay: Ratio of MBC to MIC for Klebsiella pneumoniae BAA-1706 after 18 to 20 hrs in aerobic condition by CLSI-based broth microdilution assay; format: functional
Salmonella enterica [30] = assay: Ratio of MBC to MIC for Salmonella enterica NR-170 clinical isolates; format: functional
Salmonella typhimurium = assay: Ratio of MBC to MIC for Salmonella typhimurium ATCC 700720 clinical isolates; format: functional, Salmonella enterica subsp. enterica serovar Typhimurium
Shigella flexneri = assay: Ratio of MBC to MIC for Shigella flexneri ATCC 9199 clinical isolates; format: functional
Pseudomonas aeruginosa [31] = assay: Ratio of MBC to MIC for Pseudomonas aeruginosa ATCC 9027 clinical isolates; format: functional
Pseudomonas aeruginosa [32] = assay: Ratio of MBC to MIC for Pseudomonas aeruginosa ATCC 25619 clinical isolates; format: functional
Pseudomonas aeruginosa [33] = assay: Ratio of MBC to MIC for Pseudomonas aeruginosa ATCC 15442 clinical isolates; format: functional
Escherichia coli [34] = assay: microbe, parasite or virus in culture; conditions: ATCC 1411
Description: Antibacterial activity against Escherichia coli ATCC 1411 clinical isolates after 18 to 20 hrs in aerobic condition by CLSI-based broth microdilution assay

Pseudomonas aeruginosa [35] = assay: microbe, parasite or virus in culture; conditions: ATCC 9027
Description: Antibacterial activity against Pseudomonas aeruginosa ATCC 9027 clinical isolates after 18 to 20 hrs in aerobic condition by CLSI-based broth microdilution assay

Pseudomonas aeruginosa [36] = assay: microbe, parasite or virus in culture; conditions: ATCC 25619
Description: Antibacterial activity against Pseudomonas aeruginosa ATCC 25619 clinical isolates after 18 to 20 hrs in aerobic condition by CLSI-based broth microdilution assay

Escherichia coli [37] = assay: Inhibition of 6His tagged Escherichia coli UPPP expressed in Escherichia coli C41(DE3) cells preincubated for 15 mins followed by FPP substrate addition and measured after 20 mins by malachite green reagent based assay

Compound: C/C(=N\NC(=N)N)c1cnn(-c2ccc(C#CC3(O)CCCCC3)cc2)c1C
- MIC (Escherichia coli [1]): 4 µg/mL (≈ 10.6 µM)
- MIC (Staphylococcus aureus [2]): 4 µg/mL (≈ 10.6 µM)
- MIC (Staphylococcus aureus [3]): 2 µg/mL (≈ 5.28 µM)
- MIC (Staphylococcus aureus [4]): 2 µg/mL (≈ 5.28 µM)
- MIC (Staphylococcus aureus [5]): 2 µg/mL (≈ 5.28 µM)
- MIC (Staphylococcus aureus [6]): 2 µg/mL (≈ 5.28 µM)
- Activity (Staphylococcus aureus [7]): Active
- MIC [8]: 4 µg/mL (≈ 10.6 µM)
- MIC (Enterococcus faecium): 2 µg/mL (≈ 5.28 µM)
- MIC (Streptococcus pneumoniae): 4 µg/mL (≈ 10.6 µM)
- MIC (Clostridioides difficile): 4 µg/mL (≈ 10.6 µM)
- MIC (Acinetobacter baumannii [9]): 4 µg/mL (≈ 10.6 µM)
- MIC (Acinetobacter baumannii [10]): 8 µg/mL (≈ 21.1 µM)
- MIC (Escherichia coli [11]): 8 µg/mL (≈ 21.1 µM)
- MIC (Escherichia coli [12]): 16 µg/mL (≈ 42.3 µM)
- MIC [13]: 16 µg/mL (≈ 42.3 µM)
- MIC (Klebsiella pneumoniae [14]): 8 µg/mL (≈ 21.1 µM)
- MIC (Salmonella enterica [15]): 16 µg/mL (≈ 42.3 µM)
- MIC (Salmonella enteritidis [16]): 32 µg/mL (≈ 84.5 µM)
- MIC (Salmonella enteritidis [17]): 32 µg/mL (≈ 84.5 µM)
- MIC (Escherichia coli [18]): 64 µg/mL (≈ 169 µM)
- MIC (Klebsiella pneumoniae [19]): > 64 µg/mL
- MIC (Acinetobacter baumannii [20]): 32 µg/mL (≈ 84.5 µM)
- MIC (Pseudomonas aeruginosa [21]): 64 µg/mL (≈ 169 µM)
- Ratio (Staphylococcus aureus [22]): <=2
- Ratio (Listeria monocytogenes): <3
- Ratio (Acinetobacter baumannii [23]): >=1
- Ratio (Acinetobacter baumannii [24]): >=1
- Ratio (Acinetobacter baumannii [25]): >=1
- Ratio (Acinetobacter baumannii [26]): >=1
- Ratio (Escherichia coli [27]): >=1
- Ratio (Escherichia coli [28]): >=1
- Ratio (Klebsiella pneumoniae [29]): >=1
- Ratio (Salmonella enterica [30]): >=1
- Ratio (Salmonella typhimurium): >=1
- Ratio (Shigella flexneri): >=1
- Ratio (Pseudomonas aeruginosa [31]): >=1
- Ratio (Pseudomonas aeruginosa [32]): >=1
- Ratio (Pseudomonas aeruginosa [33]): >=1
- MIC (Escherichia coli [34]): 32 µg/mL (≈ 84.5 µM)
- MIC (Pseudomonas aeruginosa [35]): 32 µg/mL (≈ 84.5 µM)
- MIC (Pseudomonas aeruginosa [36]): 32 µg/mL (≈ 84.5 µM)

Compound: CCCCCC#Cc1ccc(-n2ncc(/C(C)=N/NC3=NCCN3)c2C)cc1
- MIC (Escherichia coli [1]): 2 µg/mL (≈ 5.31 µM)
- MIC (Staphylococcus aureus [2]): 4 µg/mL (≈ 10.6 µM)
- MIC (Staphylococcus aureus [3]): 2 µg/mL (≈ 5.31 µM)
- MIC (Staphylococcus aureus [4]): 4 µg/mL (≈ 10.6 µM)
- MIC (Staphylococcus aureus [5]): 2 µg/mL (≈ 5.31 µM)
- MIC (Staphylococcus aureus [6]): 2 µg/mL (≈ 5.31 µM)
- Activity (Staphylococcus aureus [7]): Active
- MIC [8]: 2 µg/mL (≈ 5.31 µM)
- MIC (Enterococcus faecium): 2 µg/mL (≈ 5.31 µM)
- MIC (Streptococcus pneumoniae): 4 µg/mL (≈ 10.6 µM)
- MIC (Clostridioides difficile): 4 µg/mL (≈ 10.6 µM)
- MIC (Acinetobacter baumannii [9]): 8 µg/mL (≈ 21.2 µM)
- MIC (Acinetobacter baumannii [10]): > 128 µg/mL
- MIC (Escherichia coli [11]): > 128 µg/mL
- MIC (Escherichia coli [12]): > 128 µg/mL
- MIC [13]: > 128 µg/mL
- MIC (Klebsiella pneumoniae [14]): > 128 µg/mL
- MIC (Salmonella enterica [15]): > 128 µg/mL
- MIC (Salmonella enteritidis [16]): > 128 µg/mL
- MIC (Salmonella enteritidis [17]): > 128 µg/mL
- inhibition (Escherichia coli [37]): inactive
- Ratio (Staphylococcus aureus [22]): <=2
- Ratio (Listeria monocytogenes): <3
- Ratio (Acinetobacter baumannii [23]): >=1
- Ratio (Acinetobacter baumannii [24]): >=1
- Ratio (Acinetobacter baumannii [25]): >=1
- Ratio (Acinetobacter baumannii [26]): >=1
- Ratio (Escherichia coli [27]): >=1
- Ratio (Escherichia coli [28]): >=1
- Ratio (Klebsiella pneumoniae [29]): >=1
- Ratio (Salmonella enterica [30]): >=1
- Ratio (Salmonella typhimurium): >=1
- Ratio (Shigella flexneri): >=1
- Ratio (Pseudomonas aeruginosa [31]): >=1
- Ratio (Pseudomonas aeruginosa [32]): >=1
- Ratio (Pseudomonas aeruginosa [33]): >=1
- MIC (Escherichia coli [34]): > 128 µg/mL
- MIC (Pseudomonas aeruginosa [35]): > 128 µg/mL
- MIC (Pseudomonas aeruginosa [36]): > 128 µg/mL
